Test results as given in patent US9055743B2, “Alpha, beta-unsaturated imines” (BAYER INTELLECTUAL PROPERTY GMBH, priority 2010, dated 2015).

Assays:
Format in all cases: in vivo
[1] = system: caterpillars of the army worm (Spodoptera frugiperda); experiment: Spodoptera frugiperda test (SPODFR spray treatment); conditions: 500 g/ha, spray, after 7 days
Description: Spodoptera frugiperda Test (SPODFR Spray Treatment) Solvents: 78.0 parts by weight of acetone • • 1.5 parts by weight of dimethylformamide Emulsifier: 0.5 part by weight of alkylaryl polyglycol ether
(§1) To produce a suitable preparation of active compound, 1 part by weight of active compound is mixed with the stated amounts of solvents and emulsifier, and the concentrate is diluted with emulsifier-containing water to the desired concentration.
Discs of maize leaves (Zea mays) are sprayed with an active compound preparation of the desired concentration and, after drying, populated with caterpillars of the army worm (Spodoptera frugiperda) besetzt.
After 7 days, the activity in % is determined. 100% means that all caterpillars have been killed; 0% means that none of the caterpillars have been killed.

[2] = system: green peach aphid (Myzus persicae); experiment: Myzus test (MYZUPE spray treatment); conditions: 500 g/ha, spray, after 6 days
Description: Myzus Test (MYZUPE Spray Treatment) Solvents: 78 parts by weight of acetone • • 1.5 parts by weight of dimethylformamide Emulsifier: 0.5 part by weight of alkylaryl polyglycol ether
as §1
Discs of Chinese cabbage leaves (Brassica pekinensis) which are infested by all stages of the green peach aphid (Myzus persicae) are sprayed with an active compound preparation of the desired concentration.
After 6 days, the activity in % is determined. 100% means that all aphids have been killed; 0% means that none of the aphids have been killed.

[3] = system: greenhouse red spider mite (Tetranychus urticae); experiment: Tetranychus test; OP-resistant (TETRUR spray treatment); conditions: 500 g/ha, spray, after 6 days
Description: Tetranychus Test; OP-Resistant (TETRUR Spray Treatment) Solvents: 78.0 parts by weight of acetone • • 1.5 parts by weight of dimethylformamide Emulsifier: 0.5 part by weight of alkylaryl polyglycol ether
as §1
Discs of bean leaves (Phaseolus vulgaris) infested by all stages of the greenhouse red spider mite (Tetranychus urticae) are sprayed with an active compound preparation of the desired concentration.
After 6 days, the activity in % is determined. 100% means that all spider mites have been killed; 0% means that none of the spider mites have been killed.

[4] = system: larvae of the mustard beetle (Phaedon cochleariae); experiment: Phaedon test (PHAECO spray treatment); conditions: 500 g/ha, spray, after 7 days
Description: Phaedon Test ([…] Spray Treatment) Solvents: 78.0 parts by weight of acetone • • 1.5 parts by weight of dimethylformamide Emulsifier: 0.5 part by weight of alkylaryl polyglycol ether To produce a suitable preparation of active compound, 1 part by weight of active compound is mixed with the stated amounts of solvents and emulsifiers, and the concentrate is diluted with emulsifier-containing water to the desired concentration. Discs of Chinese cabbage leaves (Brassica pekinensis) are sprayed with an active compound preparation of the desired concentration and, after drying, populated with larvae of the mustard beetle (Phaedon cochleariae).

[5] = system: Anopheles gambiae (homocygus kdr); experiment: Anopheles test (ANPHGB surface treatment); conditions: exposition 30 minutes; for knock-down activity: 100 mg/m^2, two hours after contact; for activity (mortality in %): 100 mg/m^2, 24 hours after contact
Description: Anopheles Test (ANPHGB Surface Treatment) Solvent: Acetone
To produce a suitable preparation of active compound, the active compound is dissolved in acetone (2 mg/ml). The active compound preparation is pipetted onto a glazed tile and, after drying, adult mosquitoes of the species Anopheles gambiae (homocygus kdr) are placed onto the treated tile. The exposition time is 30 minutes.
Two hours after contact to the treated surface, the knock-down proportion of the test animals in % is determined.
24 hours after contact to the treated surface, the mortality in % is determined. Here, 100% means that all mosquitoes have been killed; 0% means that none of the mosquitoes has been killed.

[6] = system: cat fleas (Ctenocephalides felis, fully sensitive laboratory strain); experiment: Contact test against fleas in-vitro (CTECFE contact); conditions: 500 g/ha, after 48 h
Description: Contact Test Against Fleas In-Vitro (CTECFE Contact)
An amount of 0.9 mg of active compound is weighed out, and 1 ml of acetone is added.
Of this acetone solution, either […] are transferred directly into roll-necked test tubes or an aliquot is diluted with 4 parts of acetone 1:5. For its part, 250 μl of this dilution are pipetted into roll-necked test tubes, or the dilution is diluted further, etc., until the desired number of dilution steps is reached.
The roll-necked test tubes containing the solution of the active compound in acetone are immediately coated in a fume cupboard by 2 h of swing rotation at 30 rpm. After evaporation of the solvent, the active compound contained in the acetone gives, at the highest concentration tested, an active compound content of 500 g/ha (or 500 μg/dm^2) on the surface of the test tube.
10-20 Adult cat fleas (Ctenocephalides felis, fully sensitive laboratory strain) anesthetized with CO2 are transferred into the test tubes prepared in this manner, and the test tubes are closed with a plastic roll-necked lid provided with fine holes.
The test tubes are stored vertically at room temperature and humidity for 24 or 48 h. After 24 and 48 h, the activity of the active compound applied is determined by comparison with an acetone-treated control. Here, an observed normal activity for all fleas corresponds to 0% activity, a strongly restricted or uncoordinated (knock-down) movement or death of all fleas corresponds to 100% activity.

SMILES	activity (caterpillars killed) [1] [%]	activity (aphids killed) [2] [%]	activity (spider mites killed) [3] [%]	activity (beetle larvae killed) [4] [%]	other results
CC1C(=CSc2ccccc2)C(=Nc2ccccc2)c2ccccc21 (mixture of isomers) [Example 1-13]	100	100	100	100	–
Cc1ccc(N=C2C=CC(C)(C)CC2=CSc2ccc(F)cc2)cc1C [Example 1-64]	100	80	80	–	knock-down activity [5]: 100%
CCOC1=CC(=CSc2ccccc2)C(=Nc2ccc(C)cc2)CC1 (mixture of isomers) [Example 1-97]	–	–	100	–	–
Cc1ccc(N=C2C(Br)=CC(C)(C)CC2=CSc2ccc(F)cc2)cc1 [Example 1-49]	100	90	–	–	–
Cc1ccc(N=C2C(=CSc3ccccc3)CCC/C2=C\Sc2ccccc2)cc1 [Example 1-60, N-{2,6-Bis[(phenylsulphanyl)methylene]cyclohexylidene}-4-methylaniline]	–	–	–	–	pest or weed control at 500 g/ha ([1]; Spodoptera frugiperda, 168 h, read-out: activity (caterpillars killed)): 100%; pest or weed control at 500 g/ha ([4]; Phaedon cochleariae, 168 h, read-out: activity (beetle larvae killed)): 100%
COc1cccc2c1CCC(=CSc1ccc(F)cc1)C2=Nc1ccc(C)cc1 [Example 1-31]	100	–	100	–	activity against cat fleas [6]: 100%
Cc1cc(C)cc(N=C2C(=CSc3ccc(F)cc3)CCc3ccccc32)c1 [Example 1-67]	100	80	–	100	–
COc1ccc2c(c1C)OCC(=CSc1ccc(F)cc1)C2=Nc1ccc(C)cc1 [Example 1-52]	–	–	–	–	activity (mortality in %) [5]: 85%
Cc1ccc(N=C2C(=CSc3ccc(F)cc3)C(C)Oc3ccc(F)cc32)cc1 (stereo not shown) [Example 1-25]	100	–	–	–	–
CC(C)c1ccc(N=C2C(=CSc3ccc(F)cc3)CCc3ccccc32)cc1 [Example 1-42]	–	–	80	–	–
COc1ccc(N=C2C(=CSc3ccccc3)C(C)c3ccccc32)cc1 (mixture of isomers) [Example 1-22]	100	–	90	–	activity against cat fleas [6]: 100%
C(Sc1ccccc1)=C1C(=Nc2ccccc2)c2ccccc2C1c1ccccc1 (mixture of isomers) [Example 1-19]	100	100	100	100	–
CC1=CC(C)(C)CC(=CSc2ccc(F)cc2)C1=Nc1ccc(C)cc1 [Example 1-93]	–	–	90	–	–
Cc1ccc(N=C2c3ccccc3C(c3ccccc3)C2C(Sc2ccccc2)Sc2ccccc2)cc1 (mixture of isomers) [Example 2-9]	100	100	100	100	–
Cc1ccc(N=C2C(=CSc3ccc(F)cc3)CCc3c2ccc2ccccc32)cc1F [Example 1-92]	100	–	100	100	–
Cc1ccc(N=C2C(=CSc3ccc(F)cc3)COc3cc(-c4ccccc4)ccc32)cc1 [Example 1-24]	–	90	–	–	–
Cc1ccc(N=C2C(=CSc3ccc(F)cc3)COc3cc(C(C)(C)C)ccc32)cc1 [Example 1-75]	100	–	–	–	–
Cc1cccc(N=C2C(=CSc3ccccc3)C(C)c3ccccc32)c1 (mixture of isomers) [Example 1-12]	100	–	100	100	–

SMILES	activity (caterpillars killed) [1] [%]	activity (aphids killed) [2] [%]	activity (spider mites killed) [3] [%]	activity (beetle larvae killed) [4] [%]	other results
Cc1ccc(N=C2C(=CSc3ccc(F)cc3)CCc3ccccc32)cc1F [Example 1-89]	100	–	100	100	knock-down activity [5]: 100%
Cc1ccc(N=C2C(=CSc3ccc(F)cc3)CCc3ccccc32)cc1C#N [Example 1-68]	100	–	100	100	–
Cc1ccc(N=C2C(=CSc3ccc(F)cc3)C(C)c3cc(Cl)ccc32)cc1 (mixture of isomers) [Example 1-50]	–	–	–	–	knock-down activity [5]: 85%
Cc1ccc(N=C2C(=CSc3ccc(F)cc3)CCc3c(C)cc(C)cc32)cc1 [Example 1-30]	100	–	80	–	–
Cc1ccc(N=C2C(=CSC3CCCC3)CCc3ccccc32)cc1 [Example 1-87]	–	100	100	100	knock-down activity [5]: 80%
Cc1ccc(N=C2c3ccc(F)cc3CCC2C(Sc2ccc(F)cc2)Sc2ccc(F)cc2)cc1 (stereo not shown) [Example 2-6]	–	–	–	–	activity (mortality in %) [5]: 95%
COc1ccc(SC=C2CCc3ccccc3C2=Nc2ccc(C)cc2)cc1 [Example 1-73]	–	–	80	–	–
Cc1ccc(N=C2C(=CSc3ccc(F)cc3)CCc3cc(Cl)sc32)cc1 (mixture of isomers) [Example 1-91]	100	90	100	100	–
COc1ccc(N=C2c3ccccc3CCC2C(Sc2ccccc2)Sc2ccccc2)cc1 (stereo not shown) [Example 2-3]	–	–	–	–	activity (mortality in %) [5]: 95%
c1ccc(N=C2c3ccccc3C(c3ccccc3)C2C(Sc2ccccc2)Sc2ccccc2)cc1 (mixture of isomers) [Example 2-10]	100	100	100	–	–
Cc1ccc(N=C2C(=CSc3ccc(F)cc3)CCc3sc(Cl)cc32)cc1 [Example 1-66]	100	–	–	100	–
Cc1cc(C)cc(N=C2C(=CSc3ccc(F)cc3)C(C)c3cc(C)ccc32)c1 (mixture of isomers) [Example 1-72]	100	–	–	–	–
Cc1ccc(N=C2C(=CSc3ccc(F)cc3)CCc3cc(C)cc(C)c32)cc1 [Example 1-77]	–	–	–	–	activity (mortality in %) [5]: 80%
Cc1ccc2c(c1)C(C)C(=CSc1ccc(F)cc1)C2=Nc1ccc(C)c(C)c1 (mixture of isomers) [Example 1-71]	100	90	100	100	knock-down activity [5]: 100%
Cc1ccc(N=C2c3cc(F)ccc3CCC2C(Sc2ccc(F)cc2)Sc2ccc(F)cc2)cc1 (stereo not shown) [Example 2-8]	100	–	90	–	–
Cc1ccc(N=C2C(=CSc3cccc(F)c3)CCc3ccccc32)cc1 [Example 1-78]	100	100	100	100	–
Cc1ccc(N=C2CCC(OC(C)C)=CC2=CSc2ccc(F)cc2)cc1 (mixture of isomers) [Example 1-99]	–	–	100	–	–
